Columns and labels:
[1] = test system: neuron-glia mixed cultures from DRG; experiment: IL-1β release in SGC-neuron co-cultures from DRG (ELISA); assay type: cell-based, mouse; conditions: 100 nM, cells from WT mice, 1 μM paclitaxel 24 h
Protocol: SGC and neuron co-culture: DRG were collected from wild-type (WT) or knock-out (KO) mice (8 weeks male) and incubated in 1 mg/ml Collagenase/Dispase (Roche Diagnostics, Madison, WI, USA) at 37° C. for 60 min, with agitation at 100 revolutions per minute (RPM) and then followed by incubation in 0.05% trypsin/EDTA for 10 min. The digestion enzymes were prepared in Dulbecco's modified Eagle medium/F12 with GlutaMAX (ThermoFisher, Waltham, MA). After incubation of 0.1% trypsin inhibitor and centrifugation (300 G), the cell pellet was gently triturated in a neurobasal medium containing […]. Dissociated DRG cells were seeded on non-coated culture dishes for 4 hrs. SGC and neurons were included for co-culture by hand-shaking of the culture flasks gently for 5 to 10 min and then resuspended by replacing with a new neurobasal medium. The attached glial-like cells were cultured in the DMEM/F12 medium containing 10% fetal bovine serum and 1% streptomycin/penicillin to promote cell growth and inhibition of differentiation. After 2 to 6 days, the glial-like cells were differentiated by application of the serum-free neural basal medium. […]

[2] = test system: PTX-induced mechanical allodynia in mice; experiment: Paclitaxel (PTX)-induced mechanical allodynia, von Frey paw withdrawal threshold; assay type: in vivo, mouse; conditions: intrathecal 100 ng
Protocol: Pain models and drug injection: Animal model of chemotherapy-induced peripheral neuropathy (CIPN) was induced by paclitaxel (Sigma-Aldrich (St. Louis, MO), T7191, diluted with sterile saline). A single injection of paclitaxel ([…]) was given by intraperitoneal injection. A single injection of paclitaxel may induce mechanical allodynia for 4-6 weeks (X. Luo et al., Macrophage Toll-like Receptor 9 Contributes to Chemotherapy-Induced Neuropathic Pain in Male Mice. J Neurosci 39, 6848-6864 (2019)). Animal model of […] neuropathy was induced by streptozotocin (STZ, Sigma-Aldrich (St. Louis, MO), S0130, diluted with sterile saline). A single injection of STZ (75 mg/kg) was given as previously described (N. C. Brigham et al., Controlled release of etoricoxib from poly(ester urea) films for post-operative pain management. J Control Release 329, 316-327 (2021)). For intrathecal (i.t.) injection of MaR1, a spinal cord puncture was made by a Hamilton micro-syringe (Hamilton, Reno, NV) with a 30-gauge needle between the L5 and L6 levels to deliver reagents (5 μl) to the cerebral spinal fluid (J. L. Hylden, G. L. Wilcox, Intrathecal morphine in mice: a new technique. Eur. J Pharmacol. 67, 313-316 (1980)).
Nociceptive behavior tests: Gpr37l1^+/+, Gpr37l1^+/−, or Gpr37l1^−/− mice were habituated to the testing environment for at least two days before the baseline testing. All the animal behaviors were tested blindly. Thermal and mechanical sensitivity was tested before and after the injection of paclitaxel (PTX, 6 mg/kg, IP) and streptozotocin (STZ, 75 mg/kg, IP). MaR1 was intrathecally injected 3 days after the STZ and PTX injection. […] The 50% paw withdrawal threshold was measured by Dixon's up-down method (W. J. Dixon, Efficient analysis of experimental observations. Annu Rev Pharmacol Toxicol 20, 441-462 (1980)). Thermal sensitivity was measured using a Hargreaves radiant heat apparatus (IITC Life Science, Woodland Hills, CA) (K. Hargreaves, et al., A new and sensitive method for measuring thermal nociception in cutaneous hyperalgesia. Pain 32, 77-88 (1988)). […]

CC/C=C\C/C=C\C[C@H](O)\C=C/C=C/C=C/[C@H](O)C/C=C\CCC(=O)O [MaR1, Maresin 1]
effect on paclitaxel-induced IL-1β secretion [1]: blocked | effect on PTX-induced mechanical allodynia ([2]; Gpr37l1+/+ WT mice, 3 days after PTX): reversed PTX-induced mechanical allodynia in all the mice | effect on PTX-induced mechanical allodynia ([2]; Gpr37l1+/− mice): significantly reversed the mechanical allodynia in a majority | effect on PTX-induced mechanical allodynia ([2]; Gpr37l1−/− mice): no significant effects

— patent US20250000834A1, “COMPOSITIONS AND METHODS FOR TARGETING GPCR FOR THE PREVENTION AND TREATMENT OF PAIN” (Duke University, priority 2021, published 2025)
